According to patent US8198322B2, “Apoptotic and anti-tumor activities of metallo-salens” (Board of Regents, The University of Texas System, priority 2008, dated 2012):
Several values for one entry are separate records, joined by “and”; a condition that tells them apart may be missing. Equal values may be shown once. Entries after “also recorded” stand apart in the source; their conditions may differ. Read-outs that look alike come from different tables or passages of the source.

Experiments:
MCF-7 cells [1] = experiment: Cell viability assay (MTT, DIC microscopy) at 20 μM; type: cell-based, human; set-up: key to Summary of cell viability activities (active/inactive): Y and N indicates active and inactive compounds respectively; Y and N indicates active and inactive compounds respectively; details: for Summary of cell viability activities (active/inactive): MCF-7 cells, 20 μM, 24-96 hrs, MTT; for effect on cell viability (in words): MCF-7, 20 μM, up to 96 hrs
Protocol: (A-F): MCF-7 cells were treated with 20 μM metallo-salens and incubated for varying time periods (24-96 hrs). Viable cells were quantified using MTT assay. The percent viable cells (relative to control, treated with equivalent amount of DMSO) were plotted as a function of time for each compound. This experiment was repeated twice with 8 replicate treatments each time. Bars indicates standard errors of mean (SEM). Curves 1-42 in FIGS. 2A-2F, represent the viability curves for compounds 1-42 respectively. (A′-F′) DIC images of the corresponding MCF-7 cells that were treated with DMSO (control panel), or with 20 μM Mn(III)- and Fe(III)-salen complexes for 72 hrs showing the visual effects on cellular morphology and growth/death.
Cell viability assay: Approximately 10,000 MCF-7 cells were seeded into each well of a 96 well micro titer plate and incubated 24 hrs in presence of 150 μL DMEM. An additional 50 μL DMEM containing required amount of each metallo-salen to obtain 20 μM final concentrations (in 200 μL final volume) in 8 replicate wells were added. Control wells were treated with equivalent amount of dimethylsulfoxide (DMSO). The viability of the cells was assayed at 24, 48, 72 and 96 hrs post treatment by using both microscopic observation and MTT assay. For microscopic observation cells were stained with trypan blue for at least 10 minute and observed under Differential Interference Contrast (DIC) setting of a fluorescence microscope (Nikon Eclipse TE2000-U, Japan). The MTT assay was performed as described previously^42. In brief, 20 μL MTT (5 mg/ml in PBS) was added into each wells and incubated for 2 hrs under normal growth condition to allow the viable cell to convert MTT to formazan. Then the media was discarded and formazan crystals were dissolved by adding 100 μL of DMSO and incubating 2 hrs with continuous shaking. The absorbance of the lysates were directly measured at 560 nm using a micro plate reader (Fluostar-omega, BMG Labtech). The absorbance values (which are proportional to the viable cell) are plotted as a function of time. The studies were repeated twice with 8 replicates each time.
The inventors studied the effect of Mn(III)-salen and Fe(III)-salen derivatives on the cell viability of cultured breast cancer cells MCF-7 in order to investigate the biochemical effects of the derivatives. The cells were incubated alone or with 20 μM of each of the metallo-salen derivatives separately (compounds 1-45) for varying time periods (0-96 hrs). The viable cells were quantified using MTT assay and the percent of cell survived (relative to the control untreated cells) were plotted against time (FIGS. 2A-2F).

MCF-7 cells [2] = experiment: Cytotoxicity assay (IC50 measurement, MTT); type: cell-based, human; details: MCF-7, 96 hrs
Protocol: Cytotoxicity assay (IC50 measurement): The cytotoxicity of Fe(III)-salen and its derivatives was determined by using MTT assay as described previously^42. In brief, approximately 10,000 MCF-7 cells were seeded into each well of a 96 well micro titer plate and incubated 24 hrs in presence of 150 μL DMEM. An additional 50 μL DMEM containing required amount of each metallo-salen to obtain 0.05 to 60 μM final concentration (in 200 μL final volume) in 8 replicate wells were added. Control wells were treated with equivalent amount of DMSO. After 96 hrs of incubation, 20 μL of MTT (5 mg/mL) was added into each well and cell viability was assayed by measuring the formazan absorption at 560 nm as described above. The absorbance (at 560 nm) values were plotted against concentration of metallo-salens to determine the IC50. The studies were repeated twice with 8 replicates each time.
The concentration of the metal-complexes at which the conversion of MTT to formazan by viable cells is reduced by 50% compared to control cells is defined as the IC50. The percent of cell survival relative to the control cells were plotted as a function of concentration of the metallo-salen derivatives.

[3] = read-out: IC50 toward MCF-7 cells
[4] = read-out: IC50 values for different complexes in MCF-7 cells

[Cl-].[Fe+3].[O-]c1c(O)cccc1C=Nc1cc2ccccc2cc1N=Cc1cccc(O)c1[O-] [compound 37, 3,3′-Dihydroxysalnaphen Fe(III) chloride]
Summary of cell viability activities (active/inactive) (MCF-7 cells [1]): Y (37)
IC50 (MCF-7 cells [2]; [3]): 0.22 µM

COc1cccc(C=Nc2cc3ccccc3cc2N=Cc2cccc(OC)c2[O-])c1[O-].[Cl-].[Fe+3] [compound 40, 3,3′-Dimethoxysalnaphen Fe(III) chloride]
Summary of cell viability activities (active/inactive) (MCF-7 cells [1]): Y (40
IC50 (MCF-7 cells [2]; [4]): 1.5 µM

[Cl-].[Fe+3].[O-]c1ccccc1C=NCCN=Cc1ccccc1[O-] [compound 22, Fe(III)-salen chloride]
effect on cell viability (in words) (MCF-7 cells [1]): highly effective in killing MCF-7 cells
Summary of cell viability activities (active/inactive) (MCF-7 cells [1]): Y (22)
IC50 (MCF-7 cells [2]; [4]): 22.4 µM

COc1ccc([O-])c(C=Nc2ccccc2N=Cc2cc(OC)ccc2[O-])c1.[Cl-].[Fe+3] [compound 35, 5,5′-Dimethoxysalphen Fe(III) chloride]
Summary of cell viability activities (active/inactive) (MCF-7 cells [1]): Y (35)
IC50 (MCF-7 cells [2]; [4]): 3.11 µM

COc1ccc(C=Nc2cc3ccccc3cc2N=Cc2ccc(OC)cc2[O-])c([O-])c1.[Cl-].[Fe+3] [compound 41, 4,4′-Dimethoxysalnaphen Fe(III) chloride]
Summary of cell viability activities (active/inactive) (MCF-7 cells [1]): Y (41)
IC50 (MCF-7 cells [2]; [3]): 0.53 µM

CC(=O)[O-].[Mn+3].[O-]c1cc(O)ccc1C=Nc1ccccc1N=Cc1ccc(O)cc1[O-] [compound 10, 4,4′-Dihydroxysalphen Mn(III) acetate]
effect on cell viability (in words) (MCF-7 cells [1]): not active
Summary of cell viability activities (active/inactive) (MCF-7 cells [1]): N (10)

N.N.[Cl][Pt][Cl] [cis-platin, Cis-diaminodichloro-platinum(II), reference compound]
IC50 (MCF-7 cells [2]; [4]): ~20 µM

CC(=O)[O-].[Mn+3].[O-]c1ccccc1C=Nc1cc2ccccc2cc1N=Cc1ccccc1[O-] [compound 15, Mn(III)-salnaphen acetate]
effect on cell viability (in words) (MCF-7 cells [1]): most effective on inducing cell death
Summary of cell viability activities (active/inactive) (MCF-7 cells [1]): Y (15)
IC50 (MCF-7 cells [2]; [4]): 15.5 µM and 15.6 µM

[Cl-].[Fe+3].[O-]c1ccccc1C=Nc1ccccc1N=Cc1ccccc1[O-] [compound 29, Fe(III)-salphen.chloride]
Summary of cell viability activities (active/inactive) (MCF-7 cells [1]): Y (29)
IC50 (MCF-7 cells [2]; [4]): 1.25 µM

CC(=O)[O-].[Mn+3].[O-]c1cc(O)ccc1C=NCCN=Cc1ccc(O)cc1[O-] [compound 3, 4,4′-Dihydroxysalen Mn(III) acetate]
effect on cell viability (in words) (MCF-7 cells [1]): did not have any significant effect on cell viability; also recorded: not active
Summary of cell viability activities (active/inactive) (MCF-7 cells [1]): N^b (3)

CC(=O)[O-].[Mn+3].[O-]c1ccccc1C=NCCN=Cc1ccccc1[O-] [compound 1, Mn(III)-salen acetate]
Summary of cell viability activities (active/inactive) (MCF-7 cells [1]): Y^b (1)
IC50 (MCF-7 cells [2]; [4]): 20.4 µM and 20.5 µM

CC(=O)[O-].COc1cccc(C=NCCN=Cc2cccc(OC)c2[O-])c1[O-].[Mn+3] [compound 5, 3,3′-Dimethoxysalen Mn(III) acetate]
Summary of cell viability activities (active/inactive) (MCF-7 cells [1]): Y (5)
IC50 (MCF-7 cells [2]; [4]): 17.7 µM

CC(=O)[O-].[Mn+3].[O-]c1c(O)cccc1C=NCCN=Cc1cccc(O)c1[O-] [compound 2, 3,3′-Dihydroxysalen Mn(III) acetate]
Summary of cell viability activities (active/inactive) (MCF-7 cells [1]): Y (2)
IC50 (MCF-7 cells [2]; [4]): 37 µM

[Cl-].[Fe+3].[O-]c1cc(O)ccc1C=NCCN=Cc1ccc(O)cc1[O-] [compound 24, 4,4′-Dihydroxysalen Fe(III) chloride]
Summary of cell viability activities (active/inactive) (MCF-7 cells [1]): N (24)

CC(=O)[O-].COc1cccc(C=Nc2ccccc2N=Cc2cccc(OC)c2[O-])c1[O-].[Mn+3] [compound 12, 3,3′-Dimethoxysalphen Mn(III) acetate]
Summary of cell viability activities (active/inactive) (MCF-7 cells [1]): Y (12)
IC50 (MCF-7 cells [2]; [4]): 22.2 µM

[Cl-].[Fe+3].[O-]c1ccc(O)cc1C=NCCN=Cc1cc(O)ccc1[O-] [compound 25, 5,5′-Dihydroxysalen Fe(III) chloride]
Summary of cell viability activities (active/inactive) (MCF-7 cells [1]): N (25)

CC(=O)[O-].[Mn+3].[O-]c1cc(O)ccc1C=Nc1cc2ccccc2cc1N=Cc1ccc(O)cc1[O-] [compound 17, 4,4′-Dihydroxysalnaphen Mn(III) acetate]
effect on cell viability (in words) (MCF-7 cells [1]): effective in inducing cell death
Summary of cell viability activities (active/inactive) (MCF-7 cells [1]): Y (17)
IC50 (MCF-7 cells [2]; [4]): 21.4 µM

COc1cccc(C=Nc2ccccc2N=Cc2cccc(OC)c2[O-])c1[O-].[Cl-].[Fe+3] [compound 33, 3,3′-Dimethoxysalphen Fe(III) chloride]
Summary of cell viability activities (active/inactive) (MCF-7 cells [1]): Y (33)
IC50 (MCF-7 cells [2]; [4]): 4.15 µM

[Cl-].[Fe+3].[O-]c1c(O)cccc1C=Nc1ccccc1N=Cc1cccc(O)c1[O-] [compound 30, 3,3′-Dihydroxysalphen Fe(III) chloride]
Summary of cell viability activities (active/inactive) (MCF-7 cells [1]): Y (30)
IC50 (MCF-7 cells [2]; [3]): 0.33 µM

[Cl-].[Fe+3].[O-]c1cc(O)ccc1C=Nc1ccccc1N=Cc1ccc(O)cc1[O-] [compound 31, 4,4′-Dihydroxysalphen Fe(III) chloride]
effect on cell viability (in words) (MCF-7 cells [1]): did not have any effects on cell viability
Summary of cell viability activities (active/inactive) (MCF-7 cells [1]): N (31)

CC(=O)[O-].COc1ccc([O-])c(C=Nc2cc3ccccc3cc2N=Cc2cc(OC)ccc2[O-])c1.[Mn+3] [compound 21, 5,5′-Dimethoxysalnaphen Mn(III) acetate]
Summary of cell viability activities (active/inactive) (MCF-7 cells [1]): Y (21)
IC50 (MCF-7 cells [2]; [4]): 19.3 µM

COc1cccc(C=NCCN=Cc2cccc(OC)c2[O-])c1[O-].[Cl-].[Fe+3] [compound 26, 3,3′-Dimethoxysalen Fe(III) chloride]
effect on cell viability (in words) (MCF-7 cells [1]): did not show any significant effect on cell viability
Summary of cell viability activities (active/inactive) (MCF-7 cells [1]): N (26)

CC(=O)[O-].[Mn+3].[O-]c1ccc(O)cc1C=Nc1cc2ccccc2cc1N=Cc1cc(O)ccc1[O-] [compound 18, 5,5′-Dihydroxysalnaphen Mn(III) acetate]
effect on cell viability (in words) (MCF-7 cells [1]): inactive
Summary of cell viability activities (active/inactive) (MCF-7 cells [1]): N (18)

[Cl-].[Fe+3].[O-]c1ccccc1C=NCCCCN=Cc1ccccc1[O-] [compound 44, Bis(salicylidene)butanediamine Fe(III) chloride]
effect on cell viability (in words) (MCF-7 cells [1]): almost no cell killing activity

[Cl-].[Fe+3].[O-]c1ccc(O)cc1C=Nc1cc2ccccc2cc1N=Cc1cc(O)ccc1[O-] [compound 39, 5,5′-Dihydroxysalnaphen Fe(III) chloride]
effect on cell viability (in words) (MCF-7 cells [1]): did not have any effects on cell viability
Summary of cell viability activities (active/inactive) (MCF-7 cells [1]): N (39)

[Cl-].[Fe+3].[O-]c1ccc(O)cc1C=Nc1ccccc1N=Cc1cc(O)ccc1[O-] [compound 32, 5,5′-Dihydroxysalphen Fe(III) chloride]
effect on cell viability (in words) (MCF-7 cells [1]): did not have any effects on cell viability
Summary of cell viability activities (active/inactive) (MCF-7 cells [1]): N (32)

[Cl-].[Fe+3].[O-]c1ccccc1C=NCCCN=Cc1ccccc1[O-] [compound 43, Bis(salicylidene)propanediamine Fe(III) chloride]
effect on cell viability (in words) (MCF-7 cells [1]): almost no cell killing activity

Fe(III)-carboxysalphen] chloride [compound 45]
effect on cell viability (in words) (MCF-7 cells [1]): almost no cell killing activity

[Cl-].[Fe+3].[O-]c1cc(O)ccc1C=Nc1cc2ccccc2cc1N=Cc1ccc(O)cc1[O-] [compound 38, 4,4′-Dihydroxysalnaphen Fe(III) chloride]
effect on cell viability (in words) (MCF-7 cells [1]): did not have any effects on cell viability
Summary of cell viability activities (active/inactive) (MCF-7 cells [1]): N (38)

[Cl-].[Fe+3].[O-]c1c(O)cccc1C=NCCN=Cc1cccc(O)c1[O-] [compound 23, 3,3′-Dihydroxysalen Fe(III) chloride]
Summary of cell viability activities (active/inactive) (MCF-7 cells [1]): N (23)
